In patent publication EP0061157A1, “2-Benzoylamino substituted benzylamine derivative and a process for preparation thereof” (Hokuriku Pharmaceutical Co.,Ltd, priority 1981, dated 1982):
Where a name gives a salt, the structure may show the parent alone. Marks after values point to notes of the source that are not given here.

What was measured:
[1] = test system: acid glycoprotein in submucosal glandular cells of the trachea; assay: Effect on the dissolution of acid glycoprotein in submucosal glandular cells of the trachea (isolated tracheal strips, AB/PAS staining); assay type: cell-based, dogs; settings: for Ratio of Glandular Cells Containing Acid Glycoprotein to Total Glandular Cells (%): control 72.4; for EC50: Canis lupus familiaris, dose required for decreasing acid glycoprotein by 50%, calculated from Table III data, read-out: ED50 (the source's name); for Potency Ratio: from ED50, dose of reference drug 1 made 1
Procedure: Experiments were performed following the method of Yanaura et al. (Nippon Yakurigaku Zasshi, 77, 559 - 568 (1981)). Male mongrel dogs weighing 10 to 12 kg were anesthetized with sodium pentobarbital (30 mg/kg, i.v.). The trachea was quickly excised about 10 cm long and rapidly […] to a Hanks' solution (95% 02 - 5% CO2, 37 + 1° ). Connective tissues around were removed and the trachea was cut into strips about 2 cm long. The tracheal strips were preincubated for 30 minutes in Hanks' solution, and then drugs were added to the solution and the mixtures were further incubated for 30 minutes. The tracheal strips were then fixed with a 10% formaldehyde isotonic solution followed by dehydrating in a series of graded ethanol concentrations and paraffinembedding in a conventional manner. Sections 4 µm thick were cut with a Jung type microtome and stained with alcian blue (pH 2.5) - periodic acid Schiff (AB (pH 2.5)/PAS). The specimens were studied by the optical microscopic observation with the effects of drugs on the secretory activities of the tracheal secretory cells and on the dissolution of acid glycoprotein in submucosal glandular cells of the tracheal. As a tracheal mucus dissolution activity, an effect on the dissolution of acid glycoprotein in submucosal glandular cells was observed. In double staining with AB (pH 2.5)/PAS, submucosal glandular cells containing much acid glycoprotein were strongly stained blue because of the reaction with AB. When acid glycoprotein in glandular cells is dissolved and its acid groups were lost, it is stained with PAS instead of AB. Consequently, submucosal glandular cells turned to red from blue in color. The ratio of blue glandular cells to total glandular cells was observed, and the effect on the dissolution of acid glycoprotein was estimated by decrease in the ratio. Based on the above data, a dose of each of the compounds tested required for decreasing acid glycoprotein by 50% (ED50) was calculated. Further, a potency ratio was determined when the dose of reference drug 1 was made 1.

Acute toxicity test = settings: mouse, in vivo, mice, Litchfield-Wilcoxon, dead animals within 7 days
Procedure: Male mice of ddy-strain weighing 20 to 25 g were used. Drugs were administered orally and intraperitoneally to 10 mice in each group. LD50 was calculated by the Litchfield-Wilcoxon method from dead animals within 7 days.

tracheal secretory cells = assay: Effect on the secretory activity of the tracheal secretory cells (isolated tracheal strips, AB/PAS staining, A^IWR); assay type: cell-based, dogs; settings: for Acinar Inner Diameter of Submucosal Gland to Wall Ratio (A^IWR): dog tracheal strips incubated 30 minutes, control 5.0 x 10^-2; for activation at 10 µM / activation at 1 µM / activation at 0.1 µM: Canis lupus familiaris, 0.5 h, relative to control, read-out: Increasing Rate in A^IWR (%)
Procedure: Experiments were performed following the method of Yanaura et al. (Nippon Yakurigaku Zasshi, 77, 559 - 568 (1981)). Male mongrel dogs weighing 10 to 12 kg were anesthetized with sodium pentobarbital (30 mg/kg, i.v.). The trachea was quickly excised about 10 cm long and rapidly […] to a Hanks' solution (95% 02 - 5% CO2, 37 + 1° ). Connective tissues around were removed and the trachea was cut into strips about 2 cm long. The tracheal strips were preincubated for 30 minutes in Hanks' solution, and then drugs were added to the solution and the mixtures were further incubated for 30 minutes. The tracheal strips were then fixed with a 10% formaldehyde isotonic solution followed by dehydrating in a series of graded ethanol concentrations and paraffinembedding in a conventional manner. Sections 4 µm thick were cut with a Jung type microtome and stained with alcian blue (pH 2.5) - periodic acid Schiff (AB (pH 2.5)/PAS). The specimens were studied by the optical microscopic observation with the effects of drugs on the secretory activities of the tracheal secretory cells and on the dissolution of acid glycoprotein in submucosal glandular cells of the tracheal. A thickness between basement membrance and cartilage (thickness of […]; wall is referred to as "W"), and acinar inner diameter of submucosal gland (A^I) were measured. Then, acinar inner diameter of submucosal gland to wall ratio (A^IWR) was calculated. Increase of A^IWR reflects enhancement of the secretory activity in submucosal gland. If test drug has a significant increase in A^IWR, it has a respiratory tract fluid (RTF) - increasing effect.

[2] = compared with reference drugs 1 and 2

COc1cc(C(=O)Nc2c(Br)cc(Br)cc2CN(C)C2CCCCC2)ccc1O.Cl [Compound of This Invention, 2-(4-Hydroxy-3-methoxybenzoylamino)-3,5-dibromo-N-cyclohexyl-N-methylbenzylamine hydrochloride]
Ratio of Glandular Cells Containing Acid Glycoprotein to Total Glandular Cells (%) ([1]; 1 x 10^-5 M): 10.6** %
Ratio of Glandular Cells Containing Acid Glycoprotein to Total Glandular Cells (%) ([1]; 1 x 10^-6 M): 21.6** %
Ratio of Glandular Cells Containing Acid Glycoprotein to Total Glandular Cells (%) ([1]; 1 x 10^-7 M): 42.0** %
EC50 [1]: 230 nM
mucolytic activity (dissolution of acid glycoprotein), times stronger than that of reference drugs 1 and 2 [1, 2]: 10 times
Potency Ratio [1]: 10.87
LD50 at 168 h (Acute toxicity test; ip, I.P.): > 4000 mg/kg
LD50 at 168 h (Acute toxicity test; po, P.O.): > 12000 mg/kg
Acinar Inner Diameter of Submucosal Gland to Wall Ratio (A^IWR) (tracheal secretory cells; 1 x 10^-5M): 7.3 x 10^-2**
Acinar Inner Diameter of Submucosal Gland to Wall Ratio (A^IWR) (tracheal secretory cells; 1 x 10^-6M): 7.1 x 10^-2**
Acinar Inner Diameter of Submucosal Gland to Wall Ratio (A^IWR) (tracheal secretory cells; 1 x 10^-7M): 6.1 x 10^-2*
activation at 10 µM (tracheal secretory cells; 1 x 10^-5M): 46%
activation at 1 µM (tracheal secretory cells; 1 x 10^-6M): 42%
activation at 0.1 µM (tracheal secretory cells; 1 x 10^-7M): 22%
enhancement in A^IWR, times as strong as that of reference drugs 1 and 2 (tracheal secretory cells; [2]): about 10 times

COc1cc(C(=O)Nc2c(Br)cc(Br)cc2CN(C)C2CCCCC2)ccc1OC(C)=O [Reference Drug 1, 2-(4-Acetoxy-3-methoxybenzoylamino)-3.5-dibromo-N-cyclohexyl-N-methylbenzylamine hydrochloride]
Ratio of Glandular Cells Containing Acid Glycoprotein to Total Glandular Cells (%) ([1]; 1 x 10^-5 M): 23.8** %
Ratio of Glandular Cells Containing Acid Glycoprotein to Total Glandular Cells (%) ([1]; 1 x 10^-6 M): 46.8** %
Ratio of Glandular Cells Containing Acid Glycoprotein to Total Glandular Cells (%) ([1]; 1 x 10^-7 M): 71.0%
EC50 [1]: 2500 nM
LD50 at 168 h (Acute toxicity test; ip, I.P.): > 4000 mg/kg
LD50 at 168 h (Acute toxicity test; po, P.O.): > 12000 mg/kg
Acinar Inner Diameter of Submucosal Gland to Wall Ratio (A^IWR) (tracheal secretory cells; 1 x 10^-5M): 6.5 x 10^-2**
Acinar Inner Diameter of Submucosal Gland to Wall Ratio (A^IWR) (tracheal secretory cells; 1 x 10^-6M): 6.2 x 10^-2*
Acinar Inner Diameter of Submucosal Gland to Wall Ratio (A^IWR) (tracheal secretory cells; 1 x 10^-7M): 5.3 x 10^-2
activation at 10 µM (tracheal secretory cells; 1 x 10^-5M): 30%
activation at 1 µM (tracheal secretory cells; 1 x 10^-6M): 24%
activation at 0.1 µM (tracheal secretory cells; 1 x 10^-7M): 6%

CN(Cc1cc(Br)cc(Br)c1N)C1CCCCC1.Cl [Reference Drug 2, 2-Amino-3,5-dibromo-N-cyclohexyl-N-methylbenzylamine hydrochloride]
Ratio of Glandular Cells Containing Acid Glycoprotein to Total Glandular Cells (%) ([1]; 1 x 10^-5 M): 17.5** %
Ratio of Glandular Cells Containing Acid Glycoprotein to Total Glandular Cells (%) ([1]; 1 x 10^-6 M): 30.0** %
Ratio of Glandular Cells Containing Acid Glycoprotein to Total Glandular Cells (%) ([1]; 1 x 10^-7 M): 66.2%
EC50 [1]: 1300 nM
Potency Ratio [1]: 1.92
LD50 at 168 h (Acute toxicity test; ip, I.P.): 2320 mg/kg
LD50 at 168 h (Acute toxicity test; po, P.O.): 9000 mg/kg
Acinar Inner Diameter of Submucosal Gland to Wall Ratio (A^IWR) (tracheal secretory cells; 1 x 10^-5M): 6.2 x 10^-2*
Acinar Inner Diameter of Submucosal Gland to Wall Ratio (A^IWR) (tracheal secretory cells; 1 x 10^-6M): 5.6 x 10^-2
Acinar Inner Diameter of Submucosal Gland to Wall Ratio (A^IWR) (tracheal secretory cells; 1 x 10^-7M): 5.2 x 10^-2
activation at 10 µM (tracheal secretory cells; 1 x 10^-5M): 24%
activation at 1 µM (tracheal secretory cells; 1 x 10^-6M): 12%
activation at 0.1 µM (tracheal secretory cells; 1 x 10^-7M): 4%
